# Where “and” joins values, the source holds several entries; their conditions need not be identical. Equal entries are not always repeated.
# Test system: human erythrocytes
# Assay: Untargeted metabolomics and 13C-glucose tracing of enolase inhibitor treated erythrocytes
# Assay type: cell-based
# Settings: 0h
# Procedure: Freshly collected erythrocytes were washed, resuspended to 10% hematocrit in buffer [25mM HEPES (pH 7.4), 120mM NaCl, 5.4mM KCl, 1.8mM CaCl2, and 1mM NaH2PO4], incubated for 1 hour at 37°C, then centrifuged at 2000xg for 5 minutes at 4°C, resuspended in fresh wash buffer to 30-40% hematocrit, and split into 210µL aliquots of packed erythrocytes. […] All samples were incubated at 37°C shaking at 500 RPM. Triplicate samples of supernatants and packed erythrocytes were collected at 0, 0.5, 1, and 6-hour intervals and snap-frozen in liquid N2.
# RBC and media samples were extracted at 1:10 and 1:20 dilutions, respectively, in 5:3:2 MeOH : MeCN:H2O v/v/v, and supernatants analyzed on a Thermo Vanquish UHPLC coupled to a Thermo Q Exactive mass spectrometer, as extensively described ([Nemkov et al., 2015]; [Nemkov et al., 2017]). The extraction buffer was supplemented with 40uM 3-^13C lactate to allow absolute quantification of lactate isotopologues, including lactate generated via glycolysis ([1,2,3-^13C3] enriched) vs. the pentose phosphate pathway ([2,3-^13C2] enriched), as described ([Reisz et al., 2016]). Metabolite assignments, peak area integration and isotopologues distributions were determined using Maven (Princeton University) ([Nemkov et al., 2015]; [Nemkov et al., 2017]).
# Data were auto-scaled and normalized to zero-hour time points. Metabolites were removed from the dataset if greater than 50% of the samples contained missing values or the relative standard deviation among replicates exceeded 25%. Additionally, data was filtered using the interquartile range to reduce near-constant values from the experiment by 5%.
# A principal component analysis of preprocessed data was plotted with the 95% confidence interval minimum volume enclosing ellipsoid for each respective group (MetaboAnalyst, cluster, plotly). A two-way repeated measures analysis of variance (ANOVA) was performed with multiple comparisons corrected for using a false discovery rate p-value cutoff of 0.05. Metabolite-Pathway analysis was performed using the R package of MetaboAnalyst, as previously described ([Xia and Wishart, 2010]). Metabolite-Protein nodal analysis was performed using omicsnet.ca and as previously described ([Zhou and Xia, 2018]).
# [1] = treated erythrocytes, one value per replicate sample, polarity +
# [2] = treated erythrocytes, one value per replicate sample, polarity -
# [3] = treated erythrocytes, replicate samples
structure (smiles),measurement,setting,value
CC(C)(C)C(=O)OCOP(=O)(OCOC(=O)C(C)(C)C)C1CC(O)N(O)C1=O (stereo not shown) [POMSF],AMP level (metabolomics signal),replicate samples,1.48E+06 and 1.22E+06 and 1.21E+06
same,ATP level (metabolomics signal),replicate samples,1.36E+04 and 1.16E+04 and 9.69E+03
same,Adenine level (metabolomics signal),replicate samples,1.41E+05 and 1.42E+05 and 1.51E+05
same,Cytosine level (metabolomics signal),replicate samples,4.50E+04 and 5.15E+04 and 1.27E+05
same,L-alanine level (metabolomics signal),replicate samples,6.40E+06 and 7.71E+06 and 9.55E+06
same,L-arginine level (metabolomics signal),replicate samples,1.10E+07 and 7.60E+06 and 2.77E+06
same,L-asparagine level (metabolomics signal),replicate samples,1.89E+06 and 2.56E+06 and 2.42E+06
same,L-aspartate level (metabolomics signal),replicate samples,1.71E+07 and 2.26E+07 and 2.06E+07
same,L-cysteine level (metabolomics signal),replicate samples,7.54E+05 and 3.33E+05 and 7.35E+04
same,L-glutamate level (metabolomics signal),replicate samples,1.88E+07 and 2.22E+07 and 2.32E+07
same,L-glutamine level (metabolomics signal),replicate samples,2.62E+07 and 2.59E+07 and 2.28E+07
same,L-histidine level (metabolomics signal),replicate samples,1.62E+06 and 1.23E+06 and 1.63E+06
same,L-isoleucine level (metabolomics signal),replicate samples,3.04E+07 and 2.95E+07 and 2.26E+07
same,L-leucine level (metabolomics signal),replicate samples,9.83E+07 and 1.22E+08 and 9.50E+07
same,L-lysine level (metabolomics signal),replicate samples,3.76E+06 and 3.81E+06 and 3.28E+06
same,L-methionine level (metabolomics signal),replicate samples,1.04E+07 and 1.29E+07 and 9.06E+06
same,L-phenylalanine level (metabolomics signal),replicate samples,4.95E+06 and 5.41E+06 and 4.32E+06
same,L-proline level (metabolomics signal),replicate samples,3.86E+07 and 3.62E+07 and 3.21E+07
same,L-serine level (metabolomics signal),replicate samples,1.54E+06 and 1.82E+06 and 2.05E+06
same,L-threonine level (metabolomics signal),replicate samples,2.66E+06 and 3.06E+06 and 2.69E+06
same,L-tryptophan level (metabolomics signal),replicate samples,5.64E+06 and 3.84E+06 and 3.64E+06
same,L-tyrosine level (metabolomics signal),replicate samples,1.11E+07 and 1.27E+07 and 8.94E+06
same,L-valine level (metabolomics signal),replicate samples,9.15E+07 and 1.15E+08 and 1.39E+08
same,dCMP level (metabolomics signal),replicate samples,3.07E+04 and 2.16E+04 and 2.21E+04
same,dTMP level (metabolomics signal),replicate samples,1.28E+06 and 1.67E+06 and 9.76E+05
same,glycine level (metabolomics signal),replicate samples,9.91E+05 and 9.30E+05 and 1.13E+06
same,N-Acyl-D-aspartate (C06380) metabolite signal,[1],2.50E+05 and 2.72E+05 (2×)
same,Poly-gamma-D-glutamate (C05723) metabolite signal,[1],1.72E+07 and 2.04E+07 and 1.59E+07
same,D-Ribitol 5-phosphate (C01068) metabolite signal,[2],2.00E+04 and 3.48E+04 and 2.09E+04
same,"D-glucono-1,5-lactone (C00198) metabolite signal",[2],5.28E+05 and 7.59E+05 and 7.80E+05
same,L-Noradrenaline (C00547) metabolite signal,[2],2.74E+05 and 1.74E+05 and 9.62E+04
same,Oxalosuccinate (C05379) metabolite signal,[2],1.90E+05 and 1.88E+05 and 1.84E+05
same,Pyridoxamine (C00534) metabolite signal,[2],3.31E+04 and 3.01E+04 and 2.36E+04
same,Thioredoxin disulfide (C00343) metabolite signal,[2],8.00E+04 and 1.23E+05 and 3.03E+04
same,1-4-beta-D-Xylan (metabolite signal),[3],2.50E+05 and 2.94E+05 and 2.54E+05
same,2-Hydroxyglutarate/Citramalate (C02630) metabolite signal,[3],2.14E+05 and 2.40E+05 and 2.04E+05
same,5-6-Dihydrothymine (C00906) metabolite signal,[3],3.14E+05 and 3.41E+05 and 2.85E+05
same,5-10-Methenyltetrahydrofolate (metabolite signal),[3],2.33E+05 and 3.06E+05 and 3.71E+05
same,5-Hydroxyisourate (C11821) metabolite signal,[3],2.99E+06 and 4.00E+06 and 4.10E+06
same,5-L-Glutamyl-taurine (metabolite signal),[3],1.28E+05 and 9.38E+04 and 1.74E+05
same,5-Oxoproline (metabolite signal),[3],1.06E+06 and 1.19E+06 and 1.05E+06
same,(S)(+)-Allantoin (C02350) metabolite signal,[3],3.96E+04 and 4.19E+04 and 4.78E+04
same,Allantoate (C00499) metabolite signal,[3],5.92E+05 and 4.20E+05 and 1.48E+05
same,Ascorbate (metabolite signal),[3],1.27E+05 and 1.55E+05 and 1.07E+05
same,CMP-N-acetylneuraminate (metabolite signal),[3],3.49E+04 and 6.40E+04 and 4.41E+04
same,Carnosine (metabolite signal),[3],1.74E+05 and 2.21E+05 and 3.49E+05
same,Citrate (C00158) metabolite signal,[3],3.66E+04 and 3.31E+04 and 3.64E+04
same,Creatine (metabolite signal),[3],2.22E+08 and 2.62E+08 and 3.28E+08
same,Creatinine (metabolite signal),[3],3.21E+06 and 3.75E+06 and 4.22E+06
same,Cys-Gly (metabolite signal),[3],2.17E+06 and 2.00E+06 and 1.46E+06
same,D-Glucosamine (metabolite signal),[3],1.02E+05 and 8.07E+04 and 1.48E+05
same,D-Glucose (C00031) metabolite signal,[3],6.82E+06 and 7.47E+06 and 6.93E+06
same,D-Ribose (C00121) metabolite signal,[3],1.55E+05 and 2.41E+05 and 2.38E+05
same,Dehydroascorbate (metabolite signal),[3],1.97E+04 and 1.24E+04 and 6.28E+03
same,Dihydrofolate (metabolite signal),[3],2.52E+06 and 2.25E+06 and 7.96E+05
same,Dimethylglycine (metabolite signal),[3],8.88E+05 and 1.01E+06 and 1.45E+06
same,Diphosphate (C00013) metabolite signal,[3],6.51E+03 and 2.62E+03 and 7.12E+02
same,Fumarate (C00122) metabolite signal,[3],1.66E+05 and 1.93E+05 and 1.68E+05
same,Glutathione (C00051) metabolite signal,[3],1.67E+08 and 1.41E+08 and 9.66E+07
same,Glutathione disulfide (metabolite signal),[3],3.84E+05 and 6.78E+05 and 4.93E+05
same,Hypoxanthine (C00262) metabolite signal,[3],1.47E+05 and 1.29E+05 and 1.33E+05
same,IMP (C00130) metabolite signal,[3],7.71E+04 and 2.73E+04 and 2.17E+04
same,Inosine (C00294) metabolite signal,[3],9.47E+04 and 1.13E+05 and 1.20E+05
same,L-Citrulline (metabolite signal),[3],1.15E+06 and 1.84E+06 and 2.36E+06
same,L-Homoserine (metabolite signal),[3],2.11E+05 and 2.32E+05 and 1.47E+05
same,Lactate (C01432) metabolite signal,[3],7.24E+06 and 8.30E+06 and 8.24E+06
same,Malate (C00149) metabolite signal,[3],5.52E+05 and 5.73E+05 and 5.31E+05
same,Mannitol (C00392) metabolite signal,[3],8.67E+04 and 1.22E+05 and 1.45E+05
same,N-Acetylneuraminate (metabolite signal),[3],2.28E+04 and 3.32E+04 and 3.78E+04
same,N-Glycoloyl-neuraminate (metabolite signal),[3],2.22E+05 and 2.27E+05 and 1.72E+05
same,NAD+ (C00003) metabolite signal,[3],4.26E+04 and 2.68E+05 and 2.34E+05
same,Nicotinamide (C00153) metabolite signal,[3],1.57E+07 and 2.35E+07 and 2.66E+07
same,Ornithine (metabolite signal),[3],2.19E+06 and 2.53E+06 and 2.49E+06
same,Oxaloacetate (C00036) metabolite signal,[3],6.97E+04 and 6.01E+04 and 4.98E+04
same,Phosphoserine (metabolite signal),[3],4.87E+04 and 2.38E+05 and 2.25E+05
same,Putrescine (metabolite signal),[3],4.73E+04 and 6.21E+04 and 7.27E+04
same,Pyridoxal (C00250) metabolite signal,[3],5.83E+04 and 4.46E+04 and 6.28E+04
same,Pyruvate (C00022) metabolite signal,[3],1.18E+06 and 1.33E+06 and 1.20E+06
same,S-Glutathionyl-L-cysteine (metabolite signal),[3],1.80E+05 and 2.28E+05 and 9.16E+04
same,Sedoheptulose 1-phosphate (C06222) metabolite signal,[3],5.23E+04 and 6.25E+04 and 4.82E+04
same,Spermidine (metabolite signal),[3],1.16E+07 and 9.80E+06 and 1.05E+07
same,Spermine (metabolite signal),[3],9.70E+06 and 8.73E+06 and 7.99E+06
same,Succinate (C00042) metabolite signal,[3],9.79E+04 and 1.14E+05 and 1.10E+05
same,Thymidine (C00214) metabolite signal,[3],2.50E+04 and 1.31E+04 and 1.15E+04
same,UDP (C00015) metabolite signal,[3],6.45E+05 and 4.64E+05 and 1.60E+05
same,UDP-N-acetyl-D-glucosamine (metabolite signal),[3],3.60E+04 and 3.50E+04 and 3.40E+04
same,UDP-glucose (C00029) metabolite signal,[3],1.12E+05 and 1.15E+05 and 9.19E+04
same,Urate (C00366) metabolite signal,[3],4.94E+04 and 4.14E+04 and 3.72E+04
same,Xanthine (C00385) metabolite signal,[3],2.85E+05 and 3.63E+05 and 3.38E+05
same,alpha-D-Glucosamine 1-phosphate (metabolite signal),[3],1.10E+06 and 1.63E+06 and 3.07E+06
same,alpha-D-Ribose 1-phosphate (C00620) metabolite signal,[3],1.48E+05 and 1.44E+05 and 1.26E+05
same,gamma-Glutamyl-gamma-aminobutyrate (metabolite signal),[3],8.69E+04 and 8.91E+04 and 1.07E+05
same,gamma-L-Glutamyl-D-alanine (metabolite signal),[3],2.41E+04 and 3.08E+04 and 2.52E+04
same,gamma-L-Glutamyl-L-cysteine (metabolite signal),[3],4.83E+04 and 5.61E+04 and 6.44E+03
